Data as given in patent publication US7816389B2, “Organic compounds” (Nabriva Therapeutics Forschungs GmbH, priority 2006, dated 2010).
In brackets after ≈: the same amount, converted by molar mass.

Columns and labels:
Assay type in all cases: cell-based
[1] = test system: Streptococcus pneumoniae ATCC49619 B11; assay: MIC determination according to CLSI; details: ATCC49619, strain B11
From the text: (§1) For example, the compounds of the present invention show antimicrobial, e.g. antibacterial, activity against gram positive bacteria, such as coagulase-positive and coagulase-negative Staphylococci, e.g. Staphylococcus aureus, Styphylococcus epidermis, Staphylococcus haemolyticus, Streptococci, e.g. Streptococcus pyogenes, Streptococcus pneumoniae, Streptococcus agalacticae, Enterococci, e.g. Enterococcus faecium and Moraxellaceae, e.g. Moraxella catarrhalis, Pasteurellaceae, e.g. Haemophilus influenzae, as well as against Mycoplasmactaceae, Chlamydiaceae, e.g. Chlamydia trachomatis, Chlamydia pneumoniae and obligatory anaerobes, e.g. Bacteroides fragilis, Clostridium difficile; in vitro in the Agar Dilution Test or Microdilution Test according to the Climical and Laboratory Standards Institute (CLSI, former National Commitee for Clinical Laboratory Standards (NCCLS) 2006, Document M7-A7 Vol. 26, No. 2: “Methods for dilution Antimicrobial Susceptibility Tests for Bacteria that Grow Aerobically—Seventh Edition, Approved Standard”; and in the in vitro determination of the antibacterial activity against anaerobic bacteria according to National Committee for Clinical Laboratory Standards (NCCLS) VOL. 24, No. 2, M11-A5, Methods for Antimicrobal Susceptibility Testing of Anaerobic Bacteria; Approved Standard; Sixth Edition (2004) and in vivo in the septicaemic mouse model against Staphylococcus aureus.
(§2) The antibacterial activity expressed as minimal inhibitory concentration (MIC) was determined according to the approved standard reference recommendations of CLSI (former NCCLS).

[2] = test system: Staphylococcus aureus (MSSA) ATCC10390 B6; assay: MIC determination according to CLSI; details: ATCC10390, strain B6
From the text: as §1, §2

[3] = test system: Escherichia coli ATCC25922 B1; assay: MIC determination according to CLSI; details: ATCC25922, strain B1
From the text: as §1, §2

[4] = test system: Staphylococcus aureus (MSSA) ATCC29213 B7; assay: MIC determination according to CLSI; details: ATCC29213, strain B7
From the text: as §1, §2

[5] = test system: Enterococcus faecalis ATCC51299 B5; assay: MIC determination according to CLSI; details: ATCC51299, strain B5
From the text: as §1, §2

[6] = test system: Enterococcus faecalis ATCC29212 B4; assay: MIC determination according to CLSI; details: ATCC29212, strain B4
From the text: as §1, §2

[7] = test system: Moraxella catarrhalis ATCC43618 B407; assay: MIC determination according to CLSI; details: ATCC43618, strain B407
From the text: as §1, §2

[8] = test system: Staphylococcus aureus, Enterococcus faecalis, Streptococcus pneumoniae, Moraxelia catarrhalis and Escherichia coli; assay: MIC determination according to CLSI, panel of pathogens
Method: as §2

SMILES	MIC [1] [µg/mL]	MIC [2] [µg/mL]	MIC [3] [µg/mL]	MIC [4] [µg/mL]	MIC [5] [µg/mL]	MIC [6] [µg/mL]	MIC [7] [µg/mL]	antibacterial activity (in vitro) ([8]; against at least one of the clinical relevant bacterial pathogens)	factor by which MICs are lower than the MICs of Example 2 ([8]; against at least one of the strains shown in Table 1)
C=C[C@]1(C)C[C@@H](OC(=O)CSc2cccc(CO)c2)[C@]2(C)C(C)CCC3(CCC(=O)C32)[C@@H](C)[C@@H]1O (stereo partly shown) [Example 1, 14-O-[(3-Hydroxymethyl-phenylsulfanyl)-acetyl]-mutilin]	0.01 (≈ 0.02 µM)	≤ 0.0125	12.8 (≈ 25.6 µM)	≤ 0.0125	6.4 (≈ 12.8 µM)	6.4 (≈ 12.8 µM)	≤ 0.0125	very good activity	≥ 2
C=C[C@]1(C)C[C@@H](OC(=O)CSc2ccc(C)cc2)[C@]2(C)C(C)CCC3(CCC(=O)C32)[C@@H](C)[C@@H]1O (stereo partly shown) [Example 2, 14-O-[(4-Methyl-phenylsulfanyl)-acetyl]-mutilin, reference compound]	0.16 (≈ 0.33 µM)	0.025 (≈ 0.0516 µM)	> 25.6	0.025 (≈ 0.0516 µM)	> 25.6	> 25.6	≤ 0.0125	–	–
